Source: ChEMBL document CHEMBL5584339, “Design, Synthesis, and Evaluation of the Antitubercular Activity of 5-Phenyl Substituted-5, 6-dihydropyrido[2, 3-d]pyrimidine-4, 7(3H, 8H)-dione Compounds” (J Med Chem, 2024)
In brackets after ≈: the same amount, converted by molar mass.

Key:
Assay type in all cases: functional
[1] = system: Mycobacterium tuberculosis; experiment: Antitubercular activity against isoniazid/rifampicin resistant Mycobacterium tuberculosis 12525 incubated for 7 days by alamar blue assay; conditions: Mycobacterium tuberculosis, 12525, 168 h; time 7 day
[2] = system: Mycobacterium tuberculosis; experiment: Antitubercular activity against isoniazid/rifampicin resistant Mycobacterium tuberculosis 16995 incubated for 7 days by alamar blue assay; conditions: Mycobacterium tuberculosis, 16995, 168 h; time 7 day
[3] = system: Mycobacterium tuberculosis; experiment: Antitubercular activity against isoniazid/streptomycin/rifampicin/ethambutol/p-aminosalicylate/prothionamide/capreomycin resistant Mycobacterium tuberculosis 14862 incubated for 7 days by alamar blue assay; conditions: Mycobacterium tuberculosis, 14862, 168 h; time 7 day
[4] = system: Mycobacterium tuberculosis; experiment: Antitubercular activity against isoniazid/rifampicin resistant Mycobacterium tuberculosis 16833 incubated for 7 days by alamar blue assay; conditions: Mycobacterium tuberculosis, 16833, 168 h; time 7 day
[5] = system: Mycobacterium tuberculosis; experiment: Antitubercular activity against isoniazid/streptomycin/rifampicin/ethambutol/p-aminosalicylate/rifabutin/ofloxacin resistant Mycobacterium tuberculosis 13946 incubated for 7 days by alamar blue assay; conditions: Mycobacterium tuberculosis, 13946, 168 h; time 7 day

SMILES	MIC [1]	MIC [2]	MIC [3]	MIC [4]	MIC [5]
C=CCSc1nc2c(c(=O)[nH]1)C(c1ccc(OC)cc1[N+](=O)[O-])CC(=O)N2 (stereo not given)	2 µg/mL (≈ 5.15 µM)	2 µg/mL (≈ 5.15 µM)	1 µg/mL (≈ 2.57 µM)	1 µg/mL (≈ 2.57 µM)	2 µg/mL (≈ 5.15 µM)
CCCSc1nc2c(c(=O)[nH]1)[C@@H](c1ccc(OC)cc1[N+](=O)[O-])CC(=O)N2	0.125 µg/mL (≈ 0.32 µM)	0.125 µg/mL (≈ 0.32 µM)	0.059 µg/mL (≈ 0.151 µM)	0.06 µg/mL (≈ 0.154 µM)	0.125 µg/mL (≈ 0.32 µM)
CCCSc1nc2c(c(=O)[nH]1)C(c1ccc(OC)cc1O)CC(=O)N2 (stereo not given)	4 µg/mL (≈ 11.1 µM)	4 µg/mL (≈ 11.1 µM)	4 µg/mL (≈ 11.1 µM)	1 µg/mL (≈ 2.77 µM)	2 µg/mL (≈ 5.53 µM)
CCCSc1nc2c(c(=O)[nH]1)[C@H](c1ccc(OC)cc1)CC(=O)N2			12.8 µg/mL (≈ 37.1 µM)		
CCC[S+]([O-])c1nc2c(c(=O)[nH]1)[C@@H](c1ccc(OC)cc1[N+](=O)[O-])CC(=O)N2 (stereo not given in full)			> 32 µg/mL		
C=CCSc1nc2c(c(=O)[nH]1)C(c1ccc(OC)cc1O)CC(=O)N2 (stereo not given)	16 µg/mL (≈ 44.5 µM)	32 µg/mL (≈ 89 µM)	13.3 µg/mL (≈ 36.9 µM)	8 µg/mL (≈ 22.3 µM)	8 µg/mL (≈ 22.3 µM)
CCCSc1nc2c(c(=O)[nH]1)C(c1ccc(OCC)cc1)CC(=O)N2 (stereo not given)	1 µg/mL (≈ 2.78 µM)	1 µg/mL (≈ 2.78 µM)	0.25 µg/mL (≈ 0.696 µM)	0.5 µg/mL (≈ 1.39 µM)	2 µg/mL (≈ 5.56 µM)
CCCS(=O)(=O)c1nc2c(c(=O)[nH]1)[C@H](c1ccc(OC)cc1)CC(=O)N2			> 32 µg/mL		
CCCOc1ccc(C2CC(=O)Nc3nc(SCCC)[nH]c(=O)c32)cc1 (stereo not given)	2 µg/mL (≈ 5.36 µM)	2 µg/mL (≈ 5.36 µM)	2 µg/mL (≈ 5.36 µM)	0.5 µg/mL (≈ 1.34 µM)	1 µg/mL (≈ 2.68 µM)
CCCS(=O)(=O)c1nc2c(c(=O)[nH]1)[C@@H](c1ccc(OC)cc1[N+](=O)[O-])CC(=O)N2			> 32 µg/mL		
CCCSc1nc2c(c(=O)[nH]1)C(c1ccc(OC)c(N)c1)CC(=O)N2 (stereo not given)	8 µg/mL (≈ 22.2 µM)	8 µg/mL (≈ 22.2 µM)	4 µg/mL (≈ 11.1 µM)	4 µg/mL (≈ 11.1 µM)	16 µg/mL (≈ 44.4 µM)
CCCSc1nc2c(c(=O)[nH]1)C(c1ccc(OC(C)C)cc1)CC(=O)N2 (stereo not given)	4 µg/mL (≈ 10.7 µM)	2 µg/mL (≈ 5.36 µM)	2 µg/mL (≈ 5.36 µM)	1 µg/mL (≈ 2.68 µM)	1 µg/mL (≈ 2.68 µM)
C=CCSc1nc2c(c(=O)[nH]1)C(c1ccc(OC)c(O)c1)CC(=O)N2 (stereo not given)	8 µg/mL (≈ 22.3 µM)	16 µg/mL (≈ 44.5 µM)	15.6 µg/mL (≈ 43.5 µM)	4 µg/mL (≈ 11.1 µM)	4 µg/mL (≈ 11.1 µM)
CCCSc1nc2c(c(=O)[nH]1)[C@@H](c1ccc(OC)cc1)CC(=O)N2	0.06 µg/mL (≈ 0.174 µM)	0.125 µg/mL (≈ 0.362 µM)	0.06 µg/mL (≈ 0.174 µM)	0.06 µg/mL (≈ 0.174 µM)	0.125 µg/mL (≈ 0.362 µM)
CCCS(=O)(=O)c1nc2c(c(=O)[nH]1)[C@H](c1ccc(OC)cc1[N+](=O)[O-])CC(=O)N2			> 32 µg/mL		
C=CCSc1nc2c(c(=O)[nH]1)C(c1ccc(OC)cc1)CC(=O)N2 (stereo not given)	2 µg/mL (≈ 5.82 µM)	2 µg/mL (≈ 5.82 µM)	1 µg/mL (≈ 2.91 µM)	1 µg/mL (≈ 2.91 µM)	1 µg/mL (≈ 2.91 µM)
CCCCSc1nc2c(c(=O)[nH]1)C(c1ccc(OC)cc1)CC(=O)N2 (stereo not given)	2 µg/mL (≈ 5.56 µM)	2 µg/mL (≈ 5.56 µM)	1 µg/mL (≈ 2.78 µM)	1 µg/mL (≈ 2.78 µM)	2 µg/mL (≈ 5.56 µM)
CCC[S+]([O-])c1nc2c(c(=O)[nH]1)[C@@H](c1ccc(OC)cc1)CC(=O)N2 (stereo not given in full)			> 32 µg/mL		
CCC[S+]([O-])c1nc2c(c(=O)[nH]1)[C@H](c1ccc(OC)cc1[N+](=O)[O-])CC(=O)N2 (stereo not given in full)			> 32 µg/mL		
CCCSc1nc2c(c(=O)[nH]1)[C@H](c1ccc(OC)cc1[N+](=O)[O-])CC(=O)N2			13.4 µg/mL (≈ 34.4 µM)		
CCCOc1ccc(C2CC(=O)Nc3nc(SCCC)[nH]c(=O)c32)c(O)c1 (stereo not given)	8 µg/mL (≈ 20.5 µM)	8 µg/mL (≈ 20.5 µM)	2 µg/mL (≈ 5.14 µM)	2 µg/mL (≈ 5.14 µM)	8 µg/mL (≈ 20.5 µM)
C=CCSc1nc2c(c(=O)[nH]1)C(c1ccc(OCC)cc1)CC(=O)N2 (stereo not given)	4 µg/mL (≈ 11.2 µM)	4 µg/mL (≈ 11.2 µM)	1 µg/mL (≈ 2.8 µM)	4 µg/mL (≈ 11.2 µM)	4 µg/mL (≈ 11.2 µM)
CCCSc1nc2c(c(=O)[nH]1)C(c1ccc(OC)c(O)c1)CC(=O)N2 (stereo not given)	8 µg/mL (≈ 22.1 µM)	8 µg/mL (≈ 22.1 µM)	8 µg/mL (≈ 22.1 µM)	4 µg/mL (≈ 11.1 µM)	4 µg/mL (≈ 11.1 µM)
C=CCSc1nc2c(c(=O)[nH]1)C(c1ccc(OCCC)cc1)CC(=O)N2 (stereo not given)	4 µg/mL (≈ 10.8 µM)	4 µg/mL (≈ 10.8 µM)	4 µg/mL (≈ 10.8 µM)	1 µg/mL (≈ 2.69 µM)	1 µg/mL (≈ 2.69 µM)
CCC[S+]([O-])c1nc2c(c(=O)[nH]1)[C@H](c1ccc(OC)cc1)CC(=O)N2 (stereo not given in full)			> 32 µg/mL		
CCCS(=O)(=O)c1nc2c(c(=O)[nH]1)[C@@H](c1ccc(OC)cc1)CC(=O)N2			> 32 µg/mL		
CCCSc1nc2c(c(=O)[nH]1)C(c1ccc(OC)cc1[N+](=O)[O-])CC(=O)N2 (racemic)	0.5 µg/mL (≈ 1.28 µM)	0.5 µg/mL (≈ 1.28 µM)	0.25 µg/mL (≈ 0.64 µM)	0.25 µg/mL (≈ 0.64 µM)	1 µg/mL (≈ 2.56 µM)
CCCSc1nc2c(c(=O)[nH]1)C(c1ccc(OC)cc1)CC(=O)N2 (racemic)	0.5 µg/mL (≈ 1.45 µM)	0.5 µg/mL (≈ 1.45 µM)	0.25 µg/mL (≈ 0.724 µM)	0.25 µg/mL (≈ 0.724 µM)	0.25 µg/mL (≈ 0.724 µM)
NNC(=O)c1ccncc1 [ISONIAZID]	> 10 µg/mL	> 10 µg/mL	> 10 µg/mL	> 10 µg/mL	> 10 µg/mL
CO[C@H]1/C=C/O[C@@]2(C)Oc3c(C)c(O)c4c(O)c(c(/C=N/N5CCN(C)CC5)c(O)c4c3C2=O)NC(=O)/C(C)=C\C=C\[C@H](C)[C@H](O)[C@@H](C)[C@@H](O)[C@@H](C)[C@H](OC(C)=O)[C@@H]1C [RIFAMPIN]	> 10 µg/mL	> 10 µg/mL	> 10 µg/mL	> 10 µg/mL	> 10 µg/mL
